One test concerns PC-6. Put plainly: Cytotoxicity against human PC6 cells by MTT assay. Format: functional, cell-based.
A short description of test [1]: Cytotoxicity against human U251SP cells by MTT assay. Format: functional, cell-based.

In the test with PC-6, `COc1c(O)cc2c(c1OC)C(=O)c1ccc(C)cc1C2=O` gave an IC50 of 52.2 µM.

In test [1], `COc1cc(O)c(C(=O)/C=C/c2ccc(O)cc2)c(OC)c1OC` yielded an IC50 of 92.7 µM.

Source of the values: ChEMBL document CHEMBL2203160, “PPARγ agonist from Chromolaena odorata” (J Nat Prod, 2012).
